Series [1] concerns rabbit. Particulars: Prenatal developmental toxicity study, new zealand white, Oral, Gavage/Intubation, dose end: 19 GD.
Series [2] concerns mouse. Particulars: Multigenerational reproductive toxicity study, cd1, Oral, Water, dose end: 1 generation.
In series [3] the test system is mouse. Particulars: Prenatal developmental toxicity study, cd1, Oral, Gavage/Intubation, dose end: 15 GD.
Series [4] relates to rat. Particulars: Prenatal developmental toxicity study, sprague dawley albino, Oral, Gavage/Intubation, dose end: 19 GD.
In series [5] the test system is rat. Particulars: Multigenerational reproductive toxicity study, wistar, Oral, Feed, dose end: 2 generation.
The subject of series [6] is rabbit. Particulars: Prenatal developmental toxicity study, other, Oral, Gavage/Intubation, dose end: 18 GD.
In series [7] the test system is rabbit. Particulars: Prenatal developmental toxicity study, new zealand white, Dermal, Topical, dose end: 19 GD.
The subject of series [8] is rabbit. Particulars: Prenatal developmental toxicity study, new zealand white, Oral, Gavage/Intubation, dose end: 18 GD.
In series [9] the test system is rat. Particulars: Multigenerational reproductive toxicity study, wistar, Oral, Gavage/Intubation, dose end: 1 generation.
In series [10] the test system is rat. Particulars: Peri- and post-natal toxicity study (Segment III), wistar, Oral, Gavage/Intubation, dose end: 21 PND.
In series [11] the test system is rabbit. Particulars: Prenatal developmental toxicity study, himalayan, Oral, Gavage/Intubation, dose end: 27 GD.
Series [12] has as its system rat. Particulars: Prenatal developmental toxicity study, sprague dawley, Oral, Gavage/Intubation, dose end: 15 GD.
Series [13] concerns rat. Particulars: Combined chronic toxicity/carcinogenicity, sprague dawley, Oral, Feed, dose end: 106 week.
The mark [14] stands for this setting: group: developmental, developmental / developmental malformation / general / local edema + developmental / developmental malformation / great vessels / persistent….
Setting [15] is: group: maternal, reproductive / reproductive performance / preimplantation loss / preimplantation loss + reproductive / reproductive performance / ….
[16] abbreviates: group: maternal, systemic / in life observation / body weight / body weight gain.
[17] abbreviates: group: offspring, systemic / in life observation / body weight / offspring (pup) weight.
[18] abbreviates: group: parental, systemic / organ weight / liver / absolute + systemic / organ weight / liver / relative to body weight + systemic / organ weight / pituitary….
The mark [19] stands for this setting: group: reproductive, reproductive / reproductive performance / reproductive performance other / NOS + reproductive / reproductive performance / gestational ….
Where [20] appears, read: group: developmental, developmental / developmental malformation / bone / exencephaly + developmental / developmental malformation / bone / fused + developmental….
[21] abbreviates: group: developmental, systemic / in life observation / body weight / fetal weight.
Where [22] appears, read: group: maternal, systemic / organ weight / liver / relative to body weight.
The mark [23] stands for this setting: group: developmental, developmental / developmental landmark / anogenital distance (agd) / anogenital distance (agd).
Where [24] appears, read: group: maternal, systemic / in life observation / body weight / body weight gain + systemic / in life observation / food consumption / food consumption.
[25] abbreviates: group: maternal, systemic / in life observation / body weight / body weight gain + systemic / in life observation / food consumption / food consumption + ….
The mark [26] stands for this setting: group: offspring, systemic / organ weight / liver / absolute + systemic / organ weight / liver / nos + systemic / organ weight / epididymis / absolute + ….
The mark [27] stands for this setting: group: offspring, systemic / organ weight / testes / nos.
The mark [28] stands for this setting: group: parental, systemic / organ weight / testes / absolute.
Setting [29] is: group: parental, systemic / organ weight / testes / absolute + systemic / organ weight / liver / nos + systemic / organ weight / testes / nos + systemic / ….
[30] abbreviates: group: reproductive, reproductive / reproductive performance / fertility / fertility.
The mark [31] stands for this setting: group: maternal, systemic / in life observation / body weight / body weight + systemic / in life observation / body weight / body weight gain + systemic / in….
Where [32] appears, read: group: developmental, developmental / developmental malformation / innominate artery / [other].
The mark [33] stands for this setting: group: maternal, systemic / in life observation / body weight / body weight + systemic / in life observation / body weight / body weight gain + reproductive….
[34] abbreviates: group: developmental, developmental / developmental malformation / bone / [other] + developmental / developmental malformation / bone / curled + developmental / ….
The mark [35] stands for this setting: group: maternal, systemic / in life observation / body weight / body weight gain + reproductive / reproductive performance / aborted / aborted + reproductive….
[36] abbreviates: group: parental, systemic / in life observation / body weight / body weight gain + systemic / in life observation / food consumption / food consumption.
[37] abbreviates: group: reproductive, reproductive / offspring survival early / dead fetuses / dead fetuses.
Where [38] appears, read: group: offspring, systemic / in life observation / body weight / offspring (pup) weight gain.
[39] abbreviates: group: developmental, developmental / developmental malformation / bone / [other] + developmental / developmental malformation / bone / fused + developmental / ….
Setting [40] is: group: maternal, reproductive / reproductive performance / postimplantation loss / postimplantation loss + systemic / in life observation / body weight / ….
The mark [41] stands for this setting: group: developmental, developmental / developmental malformation / trunk / ecchymosis.
The mark [42] stands for this setting: group: developmental, developmental / developmental malformation / trunk / ecchymosis + developmental / developmental malformation / bone / incomplete ….
[43] abbreviates: group: cholinesterase, cholinesterase / cholinesterase / cholinesterase / erythrocyte cholinesterase (che) + cholinesterase / cholinesterase / cholinesterase / ….
[44] abbreviates: group: systemic, systemic / in life observation / body weight / body weight + systemic / in life observation / body weight / body weight gain + systemic / in….

SMILES strings stand for the structures. Some results are limits rather than exact numbers.

Broadly, the LOAEL is the lowest dose or exposure tested at which an adverse effect was seen. As a reminder, the NOAEL is the highest dose or exposure tested at which no adverse effect was seen.

On to `COCCOCCOCCOC` [Triethylene glycol dimethyl ether], for which the lowest observed adverse effect level (LOAEL) in the series on rabbit [1] (setting [14]) is above 250 mg/kg/day; with rabbit [1] (setting [15]), above 250 mg/kg/day; in the series on mouse [2] (setting [17]) it was above 175 mg/kg/day; in the series with mouse [2] (setting [18]), above 175 mg/kg/day; in the series on mouse [2] (setting [19]), above 175 mg/kg/day; in the series with mouse [3] (setting [20]) it was above 1000 mg/kg/day. Further, the lowest-observed-adverse-effect level (LOAEL) in the series with mouse [3] (setting [22]) is above 1000 mg/kg/day. Moreover, the NEL is 75 mg/kg/day with rabbit [1] (setting [14]); 125 mg/kg/day in the series with rabbit [1] (setting [15]); 43.8 mg/kg/day in the series with mouse [2] (setting [17]); 87.5 mg/kg/day with mouse [2] (setting [18]); 43.8 mg/kg/day in the series with mouse [2] (setting [19]); 250 mg/kg/day with mouse [3] (setting [20]). Moreover, in the series with mouse [3] (setting [22]), the NEL worked out at 250 mg/kg/day. In addition, the NOAEL in the series with rabbit [1] (setting [14]) was at least 250 mg/kg/day; in the series on rabbit [1] (setting [15]) it was at least 250 mg/kg/day; in the series on mouse [2] (setting [17]), at least 175 mg/kg/day; in the series with mouse [2] (setting [18]), at least 175 mg/kg/day; with mouse [2] (setting [19]), at least 175 mg/kg/day; in the series with mouse [3] (setting [20]), at least 1000 mg/kg/day. In the series with mouse [3] (setting [22]), the NOAEL was at least 1000 mg/kg/day. Besides, the LEL with rabbit [1] (group: developmental, developmental / developmental malformation / spleen / small) is 125 mg/kg/day; in the series with rabbit [1] (setting [16]), 175 mg/kg/day; in the series on mouse [2] (setting [17]), 87.5 mg/kg/day; in the series on mouse [2] (setting [18]), 175 mg/kg/day; in the series with mouse [2] (group: reproductive, reproductive / reproductive performance / gestational length / gestational length), 87.5 mg/kg/day; with mouse [3] (setting [21]), 500 mg/kg/day. The compound further had an LEL with mouse [3] (setting [22]) of 500 mg/kg/day.

For the compound `CC12CC1(C)C(=O)N(c1cc(Cl)cc(Cl)c1)C2=O` (configuration not stated) [Procymidone], the LEL with rat [4] (setting [23]) stood at 12.5 mg/kg/day; in the series with rat [4] (setting [25]), 125 mg/kg/day; in the series with rat [5] (setting [27]), 5.35 mg/kg/day; in the series with rat [5] (setting [28]), 22.7 mg/kg/day; in the series on rat [5] (setting [30]), 73.2 mg/kg/day. Also, the LOAEL is 12.5 mg/kg/day with rat [4] (setting [23]); 125 mg/kg/day in the series on rat [4] (setting [24]); above 77.8 mg/kg/day with rat [5] (setting [26]); 22.7 mg/kg/day with rat [5] (setting [28]); 73.2 mg/kg/day in the series with rat [5] (setting [30]). In addition, the NEL is 3.5 mg/kg/day in the series on rat [4] (setting [23]); 12.5 mg/kg/day with rat [4] (setting [25]); below 5.35 mg/kg/day in the series on rat [5] (setting [27]); 4.52 mg/kg/day in the series with rat [5] (setting [29]); 24.1 mg/kg/day in the series with rat [5] (setting [30]). For the same compound, the no observed adverse effect level (NOAEL) is 3.5 mg/kg/day with rat [4] (setting [23]); 12.5 mg/kg/day in the series on rat [4] (setting [25]); at least 77.8 mg/kg/day in the series on rat [5] (setting [26]); 4.52 mg/kg/day in the series on rat [5] (setting [29]); 24.1 mg/kg/day with rat [5] (setting [30]).

For `Nc1ncn[nH]1` [Amitrole], the LEL in the series on rabbit [6] (setting [21]) turned out to be 80 mg/kg/day; in the series with rabbit [6] (setting [31]) it was 80 mg/kg/day; in the series on rabbit [7] (setting [32]) it was 1000 mg/kg/day; with rabbit [7] (setting [33]) it was 2000 mg/kg/day; in the series on rabbit [8] (setting [34]) it was 40 mg/kg/day; with rabbit [8] (setting [16]), 40 mg/kg/day. In addition, the LOAEL in the series with rabbit [6] (setting [21]) was determined as 80 mg/kg/day; in the series on rabbit [6] (setting [31]), 80 mg/kg/day; in the series on rabbit [7] (setting [21]), 2000 mg/kg/day; with rabbit [7] (group: maternal, systemic / in life observation / body weight / body weight + systemic / in life observation / body weight / body weight gain), 2000 mg/kg/day; in the series with rabbit [8] (setting [34]), 40 mg/kg/day; with rabbit [8] (setting [16]) it was 40 mg/kg/day. The NEL in the series on rabbit [6] (setting [21]) is 20 mg/kg/day; in the series on rabbit [6] (setting [31]), 20 mg/kg/day; with rabbit [7] (setting [32]), below 1000 mg/kg/day; in the series with rabbit [7] (setting [33]) it was 1500 mg/kg/day; in the series on rabbit [8] (setting [34]), 4 mg/kg/day; with rabbit [8] (setting [35]), 4 mg/kg/day. Besides, the NOAEL with rabbit [6] (setting [21]) was 20 mg/kg/day; in the series on rabbit [6] (setting [31]), 20 mg/kg/day; with rabbit [7] (group: developmental, systemic / in life observation / body weight / fetal weight + developmental / developmental malformation / bone / absent + developmental / …) it was 1500 mg/kg/day; in the series with rabbit [7] (setting [33]), 1500 mg/kg/day; in the series with rabbit [8] (setting [34]) it was 4 mg/kg/day; with rabbit [8] (setting [35]), 4 mg/kg/day.

Consider `CCOCC(O)COc1ccc(NC(=O)CC[S+](C)C)cc1.Cc1ccc(S(=O)(=O)[O-])cc1` (configuration not stated) [Suplatast tosylate], for which, in the series with rat [9] (setting [36]), the LEL is 1800 mg/kg/day, the LOAEL was above 1800 mg/kg/day, the NEL turned out to be 600 mg/kg/day and the NOAEL is at least 1800 mg/kg/day. In the series on rat [9] (setting [37]), this compound registered an LEL of 1800 mg/kg/day, an LOAEL above 1800 mg/kg/day, an NEL of 600 mg/kg/day and an NOAEL of at least 1800 mg/kg/day. In addition, in the series on rat [10] (setting [38]), the LEL was found to be 1800 mg/kg/day, the LOAEL was above 1800 mg/kg/day, the NEL came to 600 mg/kg/day and the NOAEL was at least 1800 mg/kg/day. In the series with rat [10] (setting [36]), the LEL turned out to be 1800 mg/kg/day, the LOAEL was above 1800 mg/kg/day, the NEL amounted to 600 mg/kg/day and the no observed adverse effect level (NOAEL) was at least 1800 mg/kg/day.

As to `CCCCCCCCCCCCCC[N+](C)(C)CCC[Si](OC)(OC)OC.[Cl-]`, in the series on rabbit [11] (setting [39]), the LEL stood at 180 mg/kg/day, the LOAEL was above 180 mg/kg/day, the NEL stood at 90 mg/kg/day and the NOAEL was at least 180 mg/kg/day. Also, in the series on rabbit [11] (setting [40]), the LEL was found to be 180 mg/kg/day, the lowest observed adverse effect level (LOAEL) was above 180 mg/kg/day, the NEL was 90 mg/kg/day and the NOAEL is at least 180 mg/kg/day.

`CNC(=O)O/N=C/C(C)(C)SC` [Aldicarb]: the LEL in the series on rat [12] (setting [41]) turned out to be 0.25 mg/kg/day; with rat [12] (setting [24]), 0.25 mg/kg/day; in the series on rat [13] (setting [43]), 0.47 mg/kg/day; in the series on rat [13] (setting [44]), 1.44 mg/kg/day. The LOAEL in the series with rat [12] (setting [41]) is 0.25 mg/kg/day; with rat [12] (setting [24]), 0.25 mg/kg/day; in the series with rat [13] (setting [43]) it was 0.47 mg/kg/day; with rat [13] (setting [44]) it was above 1.44 mg/kg/day. Also, the NEL stood at 0.125 mg/kg/day in the series with rat [12] (setting [42]), 0.125 mg/kg/day in the series with rat [12] (setting [25]), 0.047 mg/kg/day in the series on rat [13] (setting [43]) and 0.47 mg/kg/day in the series with rat [13] (setting [44]). In addition, the NOAEL with rat [12] (setting [42]) is 0.125 mg/kg/day; with rat [12] (setting [25]), 0.125 mg/kg/day; in the series on rat [13] (setting [43]), 0.047 mg/kg/day; with rat [13] (setting [44]) it was at least 1.44 mg/kg/day.

The record behind these values is EPA's ToxRefDB 2.
